What was measured:
Type in all cases: cell-based
NO production = assay: Nitric oxide production by Griess assay in activated macrophages
Protocol: (§1) RAW 264.7 macrophages were grown in flat-bottomed flasks using a standard growth medium (DMEM supplemented with 5% FBS, antibiotics and glutamine. The cells were maintained in accordance with standard procedures well known in the art. After the cells reached confluence, they were removed from the flasks using mechanical means and then concentrated by centrifuging and resuspended in a small volume of fresh culture medium. The cell concentration was adjusted with growth medium in order that about 75,000 cells could be added to each well of a 96-well plate. A combination of 25 µg/mL LPS and 10 U/ml IFN-γ DMEM, was used for activation of the macrophages. The various test agents were added to the wells one hour prior to activation. The cells were then incubated for a further 24 hours, prior to assaying the inflammatory mediator production and cell viability.
The production of NO by the macrophages subjected to the various treatments was assayed using the Griess reagent (equal volumes of 1% sulphanilamide and 0.1% napthyethylene-diamine in 5% HCl). 70 μL of supernatant from each test well was transferred to a fresh 96-well plate and mixed with 70 μL of Griess reagent and the violet color produced was measured at 540 nm.

TNF-α production = assay: TNF-α determination by ELISA in activated macrophages; details: RAW 264.7 macrophages activated with LPS and IFN-γ, agents added one hour before, 24 hours
Protocol: as §1
A sandwich ELISA was used to determine TNF-α concentration. The primary antibody was used at a concentration of […] in PBS. Serial dilutions of TNF-α standard from 0 to 1000 pg/mL in diluent (0.05% Tween-20, 0.1% BSA in PBS) were used as internal standard. TNF-α was detected with a biotinylated second antibody and an avidin peroxidase conjugate with TMB as detection reagent. The color development was monitored at 655 nm, taking readings after every 5 minutes. After 25 minutes, the reaction was stopped using 0.5 M sulphuric acid and the absorbance was measured at 450 nm.

RAW 264.7 macrophages = assay: Cell viability, Alamar Blue assay; details: % of untreated control cells
Protocol: as §1
The Alamar Blue assay of viability was performed by adding 100 μL of a 10% Alamar Blue solution to each well and incubating at 37° C. for 1-2 hr. Fluorescence was measured (excitation at 545 nm and emission at 595 nm) and expressed as a percentage of the values in untreated control cells.

[1] = at the IC50 for inhibition of NO
[2] = at the IC50 for inhibition of TNF-α

C=C[C@](C)(O)CC[C@@H]1[C@@]2(C)CCCC(C)(C)[C@@H]2CC[C@@]1(C)O [Sclareol]
IC50 (NO production; Mus musculus, RAW264.7, read-out: IC50 for the inhibition of NO production): 40 µg/mL | IC50 (TNF-α production; Mus musculus, RAW264.7, read-out: IC50 for the inhibition of TNF-α production): 80 µg/mL | Cell viability (% of cell survival) (RAW 264.7 macrophages; [1]): 96.20 ± 2.1 % of cell survival | Cell viability (% of cell survival) (RAW 264.7 macrophages; [2]): 95.30 ± 2.2 % of cell survival

Naringin
IC50 for the inhibition of NO production (NO production; RAW 264.7 macrophages activated with LPS and IFN-γ, agents added one hour before, 24 hours): 40 µg/mL | IC50 for the inhibition of TNF-α production (TNF-α production): 90 µg/mL | Cell viability (% of cell survival) (RAW 264.7 macrophages; [1]): 90.10 ± 4.2 % of cell survival | Cell viability (% of cell survival) (RAW 264.7 macrophages; [2]): 91.50 ± 5.2 % of cell survival

Steviol glycoside
IC50 for the inhibition of TNF-α production (TNF-α production): 80 µg/mL | Cell viability (% of cell survival) (RAW 264.7 macrophages; [1]): 98.20 ± 4.2 % of cell survival | Cell viability (% of cell survival) (RAW 264.7 macrophages; [2]): 99.54 ± 4.1 % of cell survival

Reference: patent US20190247449A1, “COMPOSITIONS COMPRISING A NON-PATHOGENIC BACTERIA AND METHODS FOR […] AND ANIMAL HOSTS FROM FUNGAL, BACTERIAL AND VIRAL DISEASES” (priority 2016, published 2019)
